Values of other authors, collected in patent US20030032674A1, “Use of unsaturated fatty acids to treat severe inflammatory diseases” (priority 2001, published 2003).

Experiments:
[1] = infusion; cited from earlier work
[2] = test system: natural killer cell activity; settings: infusion; mice and humans; cited from earlier work
platelet aggregation = settings: infusion; cited from earlier work

## 1,2,3-trieicosapentaenoyl-glycerol [EPA-TG]
[1]
  urinary concentration of prostaglandin I3 and thromboxane A3: increase
[2]
  natural killer cell activity: inhibit
Platelet aggregation
  platelet aggregation: decrease
